For one test, the target named is T1, KRAS G12C 1-169, his-tagged protein, GDP-loaded (Homo sapiens, UniProt P01116, G12C).
T1 construct: KRAS G12C 1-169, his-tagged protein, GDP-loaded
Nature of the test: Biochemical assay: covalent modification of KRAS G12C measured by mass spectrometry (RapidFire/TOF or Q-Exactive). Format: binding. To be noted: tested at 32 μM. Here is the method: Test compounds were prepared as 10 mM stock solutions in DMSO (Fisher cat. #BP-231-100). KRAS G12C 1-169, his-tagged protein, GDP-loaded is diluted to 2 μM or 0.5 μM in buffer (20 mM Hepes, 150 mM NaCl, 1 mM MgCl2). Compounds were tested for activity as follows:
Compounds were diluted to 50× final test concentration in DMSO in 96-well storage plates. Compound stock solutions were vortexed before use and observed cwerefully for any sign of precipitation. Dilutions were as follow: • For 32 μM final compound concentration, compounds were diluted to 1600 μM (3 μL 10 mM compound stock +15.75 μL DMSO and mixed well by pipetting. • For 8 μM final compound concentration, compounds were diluted to 400 μM (2 μL 10 mM compound stock +48 μL DMSO) and mixed well by pipetting. 49 μL of the stock protein solution was added to each well of a 96-well PCR plate (Fisher cat#1423027). 1 μl of the diluted 50× compounds were added to appropriate wells in the PCR plate using 12-channel pipettor. Reactions were mixed carefully and thoroughly by pipetting up/down with a 200 μL multi-channel pipettor. The plate was sealed well with aluminum plate seal, and protein and compound were allowed to react for a desired amount of time. 5 μL of 2% formic acid (Fisher cat#A117) in de-ionized H2O was then added to each well followed by mixing with a pipette to quench the reaction. The plate was then resealed with aluminum seal and stored frozen on dry ice until analyzed as described below.
The above described assays were analyzed by mass spectrometry according to one of the following two procedures:
The MS instrument was set to positive polarity, 2 GHz resolution, and low mass (1700) mode and allowed to equilibrate for 30 minutes. The instrument was then calibrated, switched to acquisition mode and the appropriate method loaded.
After another 30 minute equilibration time, a blank batch (i.e., buffer) was run to ensure equipment is operating properly. The samples were thawed at 37° C. for 10 minutes, briefly centrifuged, and transfered to the bench top. Wells A1 and H12 were spiked with 1 μL 500 μM internal standard peptide, and the plates centrifuged at 2000×g for 5 minutes. The method was then run and masses of each individual well recorded.
The masses (for which integration data is desired) for each well were pasted into the platemap and exported from the analysis. Masses for the internal standards were exported as well. The data at 50 ppm was extracted for the +19 charge state, and identity of well A1 was assigned using the internal standard spike and integrated. Peak data was exported as a TOF list and the above steps were repeated individually, for the +20, +21, +22, +23, +24, and +25 charge states.
The masses and peak intensities of KRAS G12C protein species were measured using a Dionex RSLCnano system (Thermo Scientific) connected to a Q Exactive Plus mass spectrometer (Thermo Scientific).
20 μL of sample was loaded onto a Aeris™ 3.6 μm WIDEPORE C4 200 Å, LC Column 50×2.1 mm column maintained at 40° C. at a flow rate of 600 μL/min with 80% Solvent A (0.1% formic acid in H2O) and 20% Solvent B (0.1% formic acid in acetonitrile). The liquid chromatography conditions were 20% solvent B for 1 minute, 20% to 60% solvent B for 1.5 minutes, 60% to 90% solvent for 0.5 minute, 90% solvent B for 0.2 minute, 90% to 20% solvent B for 0.2 minute, and then equilibrated for 1.6 minute before the following sample injection. The flow rate was maintained at 600 μL/min throughout the sample analysis.
The mass spectrometer was operated in profile mode at a resolution of 17500, 5 microscans, using 50 msec max injection time and an AGC target of 1×10^6, and a full mass range from 800-1850 m/z was recorded. The intact protein mode was applied for optimal ion transfer and maximum sensitivity. The ionization method was electrospray ionization, which used a spray voltage of 4 kV, sheath gas flow set to 50 AU, auxiliary gas flow set to 10 AU and sweep gas flow set to 1 AU. […]
On to `C=CC(=O)N1CC2(CCN(c3cccc(-c4c(O)cccc4F)c3C#N)C2)C1` [Compound I-17, 3-(2-acryloyl-2,6-diazaspiro[3.4]octan-6-yl)-2′-fluoro-6′-hydroxy-[1,1′-biphenyl]-2-carbonitrile], for which the Bind % result is “+ (+ indicates binding activity greater than 0% and up to 50%)”.

As to `CC#CC(=O)N1CC2(CCN(c3cccc(-c4c(O)cccc4F)c3C#N)C2)C1` [Compound I-18, 3-(2-(but-2-ynoyl)-2,6-diazaspiro[3.4]octan-6-yl)-2′-fluoro-6′-hydroxy-[1,1′-biphenyl]-2-carbonitrile], the Bind % result was “+ (+ indicates binding activity greater than 0% and up to 50%)”.

As for `C=CC(=O)N1CC2(CCN(c3cccc(-c4c(C)ccc5[nH]nc(N)c45)c3C#N)C2)C1` [Compound I-19, 2-(2-acryloyl-2,6-diazaspiro[3.4]octan-6-yl)-6-(3-amino-5-methyl-1H-indazol-4-yl)benzonitrile], the Bind % entry is listed as “+++ (+++ indicates binding activity greater than 75%)”.

As for `C=CC(=O)N1CC2(CCN(c3cc(OCc4ccccn4)cc(-c4c(C)ccc5[nH]ncc45)c3C#N)C2)C1` [Compound I-20, 2-(2-acryloyl-2,6-diazaspiro[3.4]octan-6-yl)-6-(5-methyl-1H-indazol-4-yl)-4-(pyridin-2-ylmethoxy) benzonitrile], the Bind % entry is “+++ (+++ indicates binding activity greater than 75%)”.

Take `C=CC(=O)N1CC2(CCN(c3cc(OC[C@@H]4CCCN4C)cc(-c4c(C)ccc5[nH]ncc45)c3C#N)C2)C1` [Compound I-21, 2-(2-acryloyl-2,6-diazaspiro[3.4]octan-6-yl)-6-(5-methyl-1H-indazol-4-yl)-4-(((S)-1-methylpyrrolidin-2-yl)methoxy) benzonitrile]: the Bind % result is reported as “+++ (+++ indicates binding activity greater than 75%)”.

In the case of `C=CC(=O)N1CCC2(CCN(c3cccc(-c4c(C)ccc5[nH]ncc45)c3C#N)C2)C1` (centres unmarked) [Compound I-22, 2-(7-acryloyl-2,7-diazaspiro[4.4]nonan-2-yl)-6-(5-methyl-1H-indazol-4-yl)benzonitrile], the Bind % result was “+ (+ indicates binding activity greater than 0% and up to 50%)”.

As for `CC#CC(=O)N1CC2(CCN(c3cccc(-c4c(C)ccc5[nH]nc(N)c45)c3C#N)C2)C1` [Compound I-23, 2-(3-amino-5-methyl-1H-indazol-4-yl)-6-(2-(but-2-ynoyl)-2,6-diazaspiro[3.4]octan-6-yl)benzonitrile], the Bind % entry was “+ (+ indicates binding activity greater than 0% and up to 50%)”.

For the molecule `C=CC(=O)N1CC2(CCN(c3cc(N4CCC(N(C)C)CC4)cc(-c4c(C)ccc5[nH]ncc45)c3C#N)C2)C1` [Compound I-24, 2-(2-acryloyl-2,6-diazaspiro[3.4]octan-6-yl)-4-(4-(dimethylamino)piperidin-1-yl)-6-(5-methyl-1H-indazol-4-yl)benzonitrile], the Bind % entry is “+++ (+++ indicates binding activity greater than 75%)”.

With `C=CC(=O)N1CC2(CCN(c3ccc(C)c(-c4c(C)ccc5[nH]ncc45)c3C#N)C2)C1` [Compound I-25, 6-(2-acryloyl-2,6-diazaspiro[3.4]octan-6-yl)-3-methyl-2-(5-methyl-1H-indazol-4-yl)benzonitrile], the Bind % result is listed as “++ (++ indicates binding activity from 50 to 75%)”.

Regarding `Cc1ccc2[nH]ncc2c1-c1cccc(N2CCC3(CN(C(=O)/C=C/CN(C)C)C3)C2)c1C#N` [Compound I-36, (E)-2-(2-(4-(dimethylamino)but-2-enoyl)-2,6-diazaspiro[3.4]octan-6-yl)-6-(5-methyl-1H-indazol-4-yl)benzonitrile], the Bind % result is “+ (+ indicates binding activity greater than 0% and up to 50%)”.

The same test, now with this note: tested at a concentration of 8 μM.
For `C=CC(=O)N1CC2(CCN(c3cc(N4CC(N(C)C)C4)cc(-c4c(C)ccc5[nH]ncc45)c3C#N)C2)C1` [Compound I-26, 2-(2-acryloyl-2,6-diazaspiro[3.4]octan-6-yl)-4-(3-(dimethylamino)azetidin-1-yl)-6-(5-methyl-1H-indazol-4-yl)benzonitrile], the Bind % entry is listed as “+++ (+++ indicates binding activity greater than 75%)”.

For `C=CC(=O)N1CC2(CCN(c3cc(OCCCN(C)C)cc(-c4c(C)ccc5[nH]ncc45)c3C#N)C2)C1` [Compound I-27, 2-(2-acryloyl-2,6-diazaspiro[3.4]octan-6-yl)-4-(3-(dimethylamino)propoxy)-6-(5-methyl-1H-indazol-4-yl)benzonitrile], the Bind % result is listed as “++ (++ indicates binding activity from 50 to 75%)”.

`C=CC(=O)N1CC2(CCN(c3cc(OCc4ccccn4)cc(-c4c(C)ccc5cnn(C)c45)c3C#N)C2)C1` [Compound I-28, 2-(2-acryloyl-2,6-diazaspiro[3.4]octan-6-yl)-6-(1,6-dimethyl-1H-indazol-7-yl)-4-(pyridin-2-ylmethoxy) benzonitrile]: the Bind % result is on record as “+++ (+++ indicates binding activity greater than 75%)”.

Take `C=CC(=O)N1CC2(CCN(c3ccc(F)c(-c4c(C)ccc5[nH]ncc45)c3C#N)C2)C1` [Compound I-29, 6-(2-acryloyl-2,6-diazaspiro[3.4]octan-6-yl)-3-fluoro-2-(5-methyl-1H-indazol-4-yl)benzonitrile]: the Bind % entry is reported as “+++ (+++ indicates binding activity greater than 75%)”.

For `C=CC(=O)N1CC2(CCN(c3cc(N4CCN(C)C(=O)C4)cc(-c4c(C)ccc5[nH]ncc45)c3C#N)C2)C1` [Compound I-30, 2-(2-acryloyl-2,6-diazaspiro[3.4]octan-6-yl)-6-(5-methyl-1H-indazol-4-yl)-4-(4-methyl-3-oxopiperazin-1-yl)benzonitrile], the Bind % result was “++ (++ indicates binding activity from 50 to 75%)”.

As for `C=CC(=O)N1CC2(CCN(c3cc(N4CCCC(O)C4)cc(-c4c(C)ccc5[nH]ncc45)c3C#N)C2)C1` (centres unmarked) [Compound I-31, 2-(2-acryloyl-2,6-diazaspiro[3.4]octan-6-yl)-4-(3-hydroxypiperidin-1-yl)-6-(5-methyl-1H-indazol-4-yl)benzonitrile], the Bind % entry is recorded as “+++ (+++ indicates binding activity greater than 75%)”.

Consider `C=CC(=O)N1CC2(CCN(c3cc(N4CCC(CN(C)C)CC4)cc(-c4c(C)ccc5[nH]ncc45)c3C#N)C2)C1` [Compound I-32, 2-(2-acryloyl-2,6-diazaspiro[3.4]octan-6-yl)-4-(4-((dimethylamino)methyl)piperidin-1-yl)-6-(5-methyl-1H-indazol-4-yl)benzonitrile], for which the Bind % entry is listed as “+++ (+++ indicates binding activity greater than 75%)”.

Regarding `C=CC(=O)N1CC2(CCN(c3cc(N4CCCC(N(C)C)C4)cc(-c4c(C)ccc5[nH]ncc45)c3C#N)C2)C1` (centres unmarked) [Compound I-33, 2-(2-acryloyl-2,6-diazaspiro[3.4]octan-6-yl)-4-(3-(dimethylamino)piperidin-1-yl)-6-(5-methyl-1H-indazol-4-yl)benzonitrile], the Bind % entry is reported as “+++ (+++ indicates binding activity greater than 75%)”.

For the molecule `Cc1ccc2[nH]ncc2c1-c1cc(N2CCOCC2)cc(N2CCC3(CN(C(=O)/C=C/CN(C)C)C3)C2)c1C#N` [Compound I-34, (E)-2-(2-(4-(dimethylamino)but-2-enoyl)-2,6-diazaspiro[3.4]octan-6-yl)-6-(5-methyl-1H-indazol-4-yl)-4-morpholino-benzonitrile], the Bind % entry was “+ (+ indicates binding activity greater than 0% and up to 50%)”.

Take `C=CC(=O)N1CC2(CCN(c3cc(OCCCN(C)C)cc(-c4c(C)ccc5cnn(C)c45)c3C#N)C2)C1` [Compound I-35, 2-(2-acryloyl-2,6-diazaspiro[3.4]octan-6-yl)-6-(1,6-dimethyl-1H-indazol-7-yl)-4-(3-(dimethylamino)propoxy) benzonitrile]: the Bind % entry was “++ (++ indicates binding activity from 50 to 75%)”.
